Data on two compounds can be found in patent US20180369195A1, “COMBINATION THERAPY FOR TREATMENT OF MELANOMA” (The Regents of the University of California, priority 2015, published 2018).

Test [1] has as its system GSK3β and Axin. As to the kind of experiment: Western blot of β-catenin destruction complex components. It is filed as cell-based, human. The conditions noted are these: melanoma cell lines, 20 μM 1-benzyl I3C. How it is done: Western Blot analyses of samples electrophoretically fractionated on 12% acrylamide gels were carried out as previously described (Wagle et al., J. Clin. Oncol. 2011. 29(22):3085-3096; Nguyen et al., Chem. Biol. Interact. 2010. 186(3):255-266). Enhanced chemiluminescence (ECL) Lightening reagents were used to visualize the primary antibody bound protein bands in nitrocellulose membranes and the results captured on ECL Autoradiography Film (GE Healthcare, Piscataway, N.J.). The western blots employed the following primary antibodies: mouse anti-MITF-M (Thermo-scientific), mouse anti-HSP 90 (BD Biosciences), mouse anti-CDK2, rabbit anti-CDK4, rabbit anti-CDK-6, mouse anti-rabbit BRAF, goat anti-LEF-1, rabbit anti-AXIN, mouse anti-BCL2, (Santa Cruz), rabbit anti-P21, mouse anti-Cyclin D1, rabbit anti-MEK-p, rabbit anti-MEK1/2, rabbit anti-GSK3β rabbit anti-LRP6, rabbit anti-LRP6-phospho (Cell signaling), mouse anti-β-catenin (Invitrogen).
On the technique in general: A western blot detects proteins with antibodies after separation by electrophoresis.

Test [2] deals with canonical Wnt signaling. As to the kind of experiment: TOP Flash Wnt reporter assay in G361 cells. It is filed as cell-based, human. How it is done:
Murine fibroblast L cells stably transfected with a construct expressing high levels of human Wnt3A were used. The cells were grown in DMEM containing 4.5 g/L Glucose, 114 mg/L Sodium Pyruvate, and 2 mM L-glutamine, supplemented with 10% fetal bovine serum (Gemini Bio Products), 2 mM L-glutamine, and 2.5 ml of 10,000 U/ml penicillin/streptomycin mixture (Gibco, Life Technologies). Conditioned media was harvested in two batches, once during routine media change after 2 days of seeding the cells and once more when the plates were confluent. The cells were trypsinized as described earlier using 0.025% trypsin (Lonza) and pelleting the cells by a spin at 4000 rpm for 5 minutes and aspirating and filtering the supernatant through a 0.2 micron filter to obtain the conditioned media. The two batches of conditioned media were mixed 1:1 and stored in aliquots at −80° C. for future use.
The TOPflash/FOPflash (Millipore) reporter assay was performed on G361 cells to assess the effect of 1-benzyl I3C on β-catenin driven Wnt transcriptional activity. TOPflash is a TCF/LEF responsive luciferase construct encoding the firefly luciferase reporter under the control of a minimal (m) CMV promoter and tandem repeats of a TCF/LEF transcriptional response element (TRE). FOPflash is a similar construct with the LEF-1 binding site mutated which serves as the negative control. G361 cells were cultured to approximately 80% confluency in a 6 well clear bottom plate (Nunc). The TOPflash/FOPflash construct was transfected using Superfect Transfection Reagent (Qiagen.) according to the manufactures instructions. […] 20 μl of supernatant from each sample was combined with 100 μl luciferase substrate (Promega) and emitted fluorescence was measured using luminometer, Lumat LB 9507 (EG&G Berthold) and the relative light units (RLU) were recorded. The RLU/μg for each sample was calculated by dividing the data obtained with their specific protein concentration determined by a Bradford assay using 1× BioRad Protein Assay reagent and measuring O.D at 595 nm. […]

Test [3] concerns normal melanocytes. The test can be described thus: Flow cytometry analysis of DNA content, normal melanocytes. It is filed as cell-based. The note with it: varying doses of 1-benzyl I3C, 48 hours. Background: In flow cytometry, cells or beads pass a laser one at a time.
In test [4] the test system is β-catenin. As to the kind of experiment: Western blot of β-catenin. The conditions noted are these: G-361, DM-738, SK-MEL-2 cells, 20 μM 1-benzyl I3C, 24, 48 and 72 hours. Type of test: cell-based, human. The text has this: The western blots employed the following primary antibodies: mouse anti-MITF-M (Thermo-scientific), mouse anti-HSP 90 (BD Biosciences), mouse anti-CDK2, rabbit anti-CDK4, rabbit anti-CDK-6, mouse anti-rabbit BRAF, goat anti-LEF-1, rabbit anti-AXIN, mouse anti-BCL2, (Santa Cruz), rabbit anti-P21, mouse anti-Cyclin D1, rabbit anti-MEK-p, rabbit anti-MEK1/2, rabbit anti-GSK3β rabbit anti-LRP6, rabbit anti-LRP6-phospho (Cell signaling), mouse anti-β-catenin (Invitrogen).

Test [5] deals with G361 cells. The test can be described thus: Flow cytometry analysis of DNA content, G361. It is filed as cell-based, human. The conditions noted are these: maximal dose of 200 μM I3C. How it is done: Melanoma cells were treated with the indicated concentrations of 1-benzyl […] in triplicates every 24 hours and harvested at the end of 24, 48 or 72 hours for cell cycle analysis. The DNA content of propidium iodide stained nuclei from harvested cells were determined by flow cytometry. Briefly, cells were hypotonically lysed in […] of DNA staining solution (0.5 mg/mL propidium iodide, 0.1% sodium citrate, and 0.05% Triton-X 100). Emitted fluorescence from the nuclear of wavelengths more than 585 nm was measured with a Coulter Elite instrument with laser output adjusted to deliver 15 mW at 488 nm. Ten thousand nuclei were analyzed from each sample at a rate of 300-500 nuclei/second. The percentage of cells within the G1, S, and G2/M phases of the cell cycle were determined by analysis with the Multicycle computer program provided by Phoenix Flow Systems in the Cancer Research Laboratory Microchemical Facility of the University of California, Berkeley.

The subject of test [6] is phosphorylated MEK. As to the kind of experiment: Western blot of phosphorylated MEK. Type of test: cell-based, human. The conditions noted are these: 200 μM I3C, 72 hour time course.
Description: Western Blot analyses of samples electrophoretically fractionated on 12% acrylamide gels were carried out as previously described (Wagle et al., J. Clin. Oncol. 2011. 29(22):3085-3096; Nguyen et al., Chem. Biol. Interact. 2010. 186(3):255-266). […] The western blots employed the following primary antibodies: mouse anti-MITF-M (Thermo-scientific), mouse anti-HSP 90 (BD Biosciences), mouse anti-CDK2, rabbit anti-CDK4, rabbit anti-CDK-6, mouse anti-rabbit BRAF, goat anti-LEF-1, rabbit anti-AXIN, mouse anti-BCL2, (Santa Cruz), rabbit anti-P21, mouse anti-Cyclin D1, rabbit anti-MEK-p, rabbit anti-MEK1/2, rabbit anti-GSK3β rabbit anti-LRP6, rabbit anti-LRP6-phospho (Cell signaling), mouse anti-β-catenin (Invitrogen).
Test [7] deals with BRN2. As to the kind of experiment: Immunofluorescence of BRN2 localization. It is filed as cell-based, human. The note with it: G-361 cells, 200 μM I3C, 48 hours.
Test [8] concerns cultured human cancer cells. The note with it: Wong et al. 1997; cited from earlier work.
The target of test [9] is T1, wild type BRAF (Homo sapiens, UniProt P15056).
T1 construct: Wild type BRAF was immunoprecipitated from SK-MEL-2 melanoma cells; endogenous in cells; host or cells: SK-MEL-2 human melanoma cells (ATCC)
As to the kind of experiment: In vitro BRAF kinase assay, in-vitro treated wild type BRAF from SK-MEL-2 cells. It is filed as biochemical. The conditions noted are these: pre-incubated 2 hours; 200 μM or 400 μM I3C, 10 μM Vemurafenib. How it is done: BRAF was pulled down from the cell lysates using anti-BRAF antibodies bound to protein G-coupled Sepharose beads, while IgG was used as a negative control. Post-immunoprecipitation supernatants were probed with anti BRAF antibody by western blots to determine pull-down efficiency. […] The reactions were terminated by adding 4× sodium dodecyl sulfate (SDS) sample buffer and boiling the mixture at 100° C. for 5 min. The samples were then electrophoresed, immunoblotted and probed for relative protein levels of phosphorylated MEK and total MEK to assess the kinase activity of the immunoprecipitated BRAF.

T1 sequence (P15056 whole entry): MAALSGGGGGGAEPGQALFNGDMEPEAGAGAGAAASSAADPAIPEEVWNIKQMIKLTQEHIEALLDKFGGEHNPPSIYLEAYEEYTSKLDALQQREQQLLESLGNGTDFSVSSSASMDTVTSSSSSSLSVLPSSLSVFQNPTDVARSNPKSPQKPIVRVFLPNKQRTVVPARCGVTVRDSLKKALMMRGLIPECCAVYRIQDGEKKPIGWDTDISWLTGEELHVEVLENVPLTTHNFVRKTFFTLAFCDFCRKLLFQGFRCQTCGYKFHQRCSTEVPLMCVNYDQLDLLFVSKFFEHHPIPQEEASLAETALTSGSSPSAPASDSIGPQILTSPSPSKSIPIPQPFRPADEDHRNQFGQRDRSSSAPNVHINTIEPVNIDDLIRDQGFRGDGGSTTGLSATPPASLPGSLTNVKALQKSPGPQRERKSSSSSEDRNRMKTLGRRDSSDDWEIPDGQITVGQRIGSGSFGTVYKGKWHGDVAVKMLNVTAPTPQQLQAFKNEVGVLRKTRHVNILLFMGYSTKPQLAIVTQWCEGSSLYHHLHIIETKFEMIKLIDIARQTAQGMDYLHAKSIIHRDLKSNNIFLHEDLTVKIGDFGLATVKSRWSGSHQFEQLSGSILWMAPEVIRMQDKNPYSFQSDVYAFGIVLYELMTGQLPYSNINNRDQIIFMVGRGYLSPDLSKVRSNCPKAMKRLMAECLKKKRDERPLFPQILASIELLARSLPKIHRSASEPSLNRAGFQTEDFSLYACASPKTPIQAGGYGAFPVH

With `OCc1cn(Cc2ccccc2)c2ccccc12` [1-benzyl I3C, 1-benzyl indole-3-carbinol], the “GSK3β and Axin levels” value in test [1] is given as “upregulation”. For the same compound, in test [2] (G361 cells in Wnt conditioned media, 1-benzyl I3C 24 hours), the “Wnt signaling (TOP luciferase activity)” value was “Wnt signaling was significantly attenuated”. The “1-benzyl I3C induced inhibition of luciferase activity, constitutively active LRP6 transfected cells” value in test [2] (G361 cells, 1-benzyl I3C 24 hours) was “significantly rescued”. In [2] (G361 cells, 1-benzyl I3C 24 hours vs vehicle), the “Wnt signaling (luciferase activity), wild-type vector transfected cells” value is “significantly inhibited the Wnt signaling”. For the same compound, in test [3], the “G1 cell cycle arrest” value is given as “no comparable effect on normal melanocytes”. The β-catenin protein levels entry in test [4] was “significantly downregulated”.
Turning to `OCc1c[nH]c2ccccc12` [I3C, indole-3-carbinol], the “G1 cell cycle arrest” value in test [5] was “significant G1 cell cycle arrest”. Further, the “phosphorylated MEK levels” value is given as “strongly down regulated” in [6] (G-361 and DM738 cells); “no effect” in test [6] (SK-MEL-2 cells). Also, the “nuclear localization of BRN2” value in [7] is given as “disrupted the nuclear localization of Brn2”. In addition, in test [8], the “optimal concentration for the anti-proliferative effect” value was 200 µM. In addition, the “wild type BRAF enzymatic activity, direct in vitro incubation” value in test [9] is reported as “no effect”.
